# Data taken from US10206937B2, “Boronic acid derivatives and therapeutic uses thereof” (Qpex Biopharma, Inc., priority 2014, dated 2019).
# Assays:
# NDM-1 [1] = molecular target: T1, NDM-1 (Klebsiella pneumoniae, UniProt C7C422); test: biochemical
# VIM-1 = molecular target: T2, VIM-1 (Pseudomonas aeruginosa, UniProt A0A0F7KYQ8); test: biochemical; settings: cleavage of nitrocefin (200 uM) by VIM-1 supernatant
# T2 construct: made in house; host or cells: ECM6711 strain carrying pUCP24-VIM-1 plasmid; culture supernatant used unpurified
# NDM-1 [2] = molecular target: T1, NDM-1; test: Inhibition of purified class B carbapenemase NDM-1 (Ki, imipenem substrate); format: biochemical
# [3] = molecular target: T3, purified class A, C and D enzymes (UniProt Q9F663); format: biochemical; settings: read-out: Ki (KPC-2, NCF); purified KPC-2; nitrocefin reporter substrate
# T3 construct: rows headed: Ki (KPC-2, NCF); other: purified KPC-2; nitrocefin reporter substrate
# ECM6703 (pUCP24-NDM-1) = format: cell-based, E. coli; settings: NDM-1 producing strain; Compound 1 at fixed 4 μg/ml or 8 μg/ml
# ECM6711 (pUCP24-VIM-1) = format: cell-based, E. coli; settings: VIM-1 producing strain; Compound 1 at fixed 4 μg/ml or 8 μg/ml
# [4] = test system: clinical isolates expressing class A, B and D carbapenemases; test: Carbapenem potentiation by Compound 1, whole panel of clinical isolates (MIC); format: cell-based; settings: Compound 1 at fixed 5 μg/ml in the growth media; all the strains
# Description: The results are present in Table 8.
# [5] = test system: EC1064 (NDM-1, CMY-6, CTX-M-15); test: Carbapenem potentiation against clinical isolate (MIC); format: cell-based, Escherichia coli; settings: antibiotic alone
# [6] = test system: KP1081 (NDM-1, TEM-1, SHV-11, CMY-6, CTX-M-15); test: as above; format: cell-based; settings: antibiotic alone
# AB1144 (NDM-1) = test: as above; format: cell-based, Acinetobacter baumannii; settings: AB1144; antibiotic alone
# EA1019 (SHV-5, VIM-1) = test: as above; format: cell-based, Enterobacter aerogenes; settings: EA1019; antibiotic alone
# KP1014 (VIM-1) = test: as above; format: cell-based, Klebsiella pneumoniae; settings: antibiotic alone
# KP1054 (VIM-1, SHV-11) = test: as above; format: cell-based, Klebsiella pneumoniae; settings: antibiotic alone
# [7] = test system: KP1064 (KPC-2, SHV-11, TEM-1); test: as above; format: cell-based, Klebsiella pneumoniae; settings: antibiotic alone
# [8] = test system: KP1074 (KPC-3, SHV-11, TEM); test: as above; format: cell-based, Klebsiella pneumoniae; settings: antibiotic alone
# [9] = test system: KP1084 (KPC-3, SHV-11, TEM-1); test: as above; format: cell-based, Klebsiella pneumoniae; settings: antibiotic alone
# [10] = test system: KP1004 (KPC-2, TEM-1, SHV-11); test: as above; format: cell-based, Klebsiella pneumoniae; settings: antibiotic alone
# [11] = test system: KP1087 (KPC-2, CTX-M-15, SHV-11, TEM-1); test: as above; format: cell-based; settings: antibiotic alone
# [12] = test system: KP1086 (TEM, SHV, CTX-M-15, OXA-48); test: as above; format: cell-based, Klebsiella pneumoniae; settings: antibiotic alone
# [13] = test system: strains of Enterobacteriaceae overexpressing various carbapenemases (class A and B); test: microbe, parasite or virus in culture; format: cell-based; settings: carbapenem alone or + Compound 14 at fixed 4 μg/ml, read-out: MIC
# Description: Several strains simultaneously expressing both class A and class B carbapenemases, which were constructed using conjugation, were also included in the panel.
# T1 sequence (C7C422 29-270, looked up, species assumed): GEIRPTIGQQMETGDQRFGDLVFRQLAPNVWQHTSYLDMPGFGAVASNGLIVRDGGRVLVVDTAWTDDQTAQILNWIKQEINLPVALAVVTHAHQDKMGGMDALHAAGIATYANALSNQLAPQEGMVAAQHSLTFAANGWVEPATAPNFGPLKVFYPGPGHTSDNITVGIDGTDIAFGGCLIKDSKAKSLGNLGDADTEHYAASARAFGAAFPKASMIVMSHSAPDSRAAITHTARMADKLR
structure (smiles),measurement,setting,value
"O=C(O)c1cccc2c1OB(O)[C@@H](Sc1nncs1)C2 [Compound 1, (R)-3-(1,3,4-thiadiazol-2-ylthio)-2-hydroxy-3,4-dihydro-2H-benzo[e][1,2]oxaborinine-8-carboxylic acid]",Ki,"NDM-1 [1]; Ki, Imipenem",10 to 100 nM
same,Ki,"NDM-1 [1]; cleavage of biapenem (100 uM) by NDM-1, read-out: Ki, Biapenem",10 to 100 nM
same,Ki,"NDM-1 [1]; cleavage of meropenem (100 uM) by NDM-1, read-out: Ki, Meropenem",10 to 100 nM
same,Ki,"NDM-1 [1]; cleavage of tebipenem (100 uM) by NDM-1, read-out: Ki, Tebipenem",> 100 nM
same,IC50,VIM-1,< 1000 nM
same,Ki,NDM-1 [2],10 to 100 nM
same,Ki,[3],100 to 1000 nM
same,imipenem MIC in the presence of Compound 1,ECM6703 (pUCP24-NDM-1),decreased to the level of the strain containing empty vector
same,imipenem MIC in the presence of Compound 1,ECM6711 (pUCP24-VIM-1),decreased to the level of the strain containing empty vector
same,"carbapenem MIC (biapenem, doripenem, imipenem, meropenem)",[4],significantly reduced
"C[C@@H](O)[C@H]1C(=O)N2C(C(=O)O)=C(S[C@@H]3CN[C@H](C(=O)N(C)C)C3)[C@H](C)[C@H]12 [Meropenem, reference compound]",Carbapenem MIC Alone,[5],Z (MIC of greater than 10 μg/mL)
same,Carbapenem MIC Alone,[6],Z (MIC of greater than 10 μg/mL)
same,Carbapenem MIC Alone,AB1144 (NDM-1),Z (MIC of greater than 10 μg/mL)
same,Carbapenem MIC Alone,"EA1019 (SHV-5, VIM-1)",Z (MIC of greater than 10 μg/mL)
same,Carbapenem MIC Alone,KP1014 (VIM-1),Y (MIC of 1 μg/mL to 10 μg/mL)
same,Carbapenem MIC Alone,"KP1054 (VIM-1, SHV-11)",Z (MIC of greater than 10 μg/mL)
same,Carbapenem MIC Alone,[7],Z (MIC of greater than 10 μg/mL)
same,Carbapenem MIC Alone,[8],Z (MIC of greater than 10 μg/mL)
same,Carbapenem MIC Alone,[9],Z (MIC of greater than 10 μg/mL)
same,Carbapenem MIC Alone,[10],Y (MIC of 1 μg/mL to 10 μg/mL)
same,Carbapenem MIC Alone,[11],Z (MIC of greater than 10 μg/mL)
same,Carbapenem MIC Alone,[12],Z (MIC of greater than 10 μg/mL)
same,MIC,"[13]; Enterobacter cloacae, strain ECL1026, Enterobacter cloacae (KPC)",1 to 10 µg/mL
same,MIC,"[13]; Enterobacter cloacae, strain ECL1036, Enterobacter cloacae (KPC)",1 to 10 µg/mL
same,MIC,"[13]; Enterobacter cloacae, strain ECL1045, Enterobacter cloacae (VIM-1)",1 to 10 µg/mL
same,MIC,"[13]; Enterobacter cloacae, strain ECL1055, Enterobacter cloacae (KPC)",1 to 10 µg/mL
same,MIC,"[13]; Enterobacter cloacae, strain ECL1057, Enterobacter cloacae (NDM-1, TEM-1, CTX-M-15)",> 10 µg/mL
same,MIC,"[13]; Enterobacter cloacae, strain ECL1082, Enterobacter cloacae (VIM-1)",1 to 10 µg/mL
same,MIC,"[13]; Enterobacter cloacae, strain ECLM1013, Enterobacter cloacae (NDM, KPC)",> 10 µg/mL
same,MIC,"[13]; Enterobacter cloacae, strain ECLM1014, Enterobacter cloacae (NDM, KPC)",> 10 µg/mL
same,MIC,"[13]; Enterobacter cloacae, strain ECLM1015, Enterobacter cloacae (NDM, KPC)",> 10 µg/mL
same,MIC,"[13]; Enterobacter cloacae, strain ECLM1016, Enterobacter cloacae (NDM, KPC)",> 10 µg/mL
same,MIC,"[13]; Enterobacter cloacae, strain ECLM1017, Enterobacter cloacae (VIM, KPC)",> 10 µg/mL
same,MIC,"[13]; Enterobacter cloacae, strain ECLM1018, Enterobacter cloacae (VIM, KPC)",> 10 µg/mL
same,MIC,"[13]; Enterobacter cloacae, strain ECLM1019, Enterobacter cloacae (VIM, KPC)",> 10 µg/mL
same,MIC,"[13]; Escherichia coli, strain EC1064, Escherichia coli (NDM-1, CMY-6, CTX-M-15)",> 10 µg/mL
same,MIC,"[13]; Escherichia coli, strain EC1068, Escherichia coli (VIM-1)",> 10 µg/mL
same,MIC,"[13]; Klebsiella aerogenes, strain EA1019, Enterobacter aerogenes (SHV-5, VIM-1)",> 10 µg/mL
same,MIC,"[13]; Klebsiella pneumoniae, strain KP1004, Klebsiella pneumoniae (KPC TEM SHV)",> 10 µg/mL
same,MIC,"[13]; Klebsiella pneumoniae, strain KP1014, Klebsiella pneumoniae (Vim-1, TEM, SHV)",> 10 µg/mL
same,MIC,"[13]; Klebsiella pneumoniae, strain KP1061, Klebsiella pneumoniae (KPC TEM SHV)",1 to 10 µg/mL
same,MIC,"[13]; Klebsiella pneumoniae, strain KP1064, Klebsiella pneumoniae (KPC TEM SHV)",> 10 µg/mL
same,MIC,"[13]; Klebsiella pneumoniae, strain KP1070, Klebsiella pneumoniae (KPC TEM SHV)",> 10 µg/mL
same,MIC,"[13]; Klebsiella pneumoniae, strain KP1084, Klebsiella pneumoniae (KPC-3, SHV-11, TEM-1)",> 10 µg/mL
same,MIC,"[13]; Klebsiella pneumoniae, strain KP1097, Klebsiella pneumoniae (IMP-1 SHV)",> 10 µg/mL
same,MIC,"[13]; Klebsiella pneumoniae, strain KP1098, Klebsiella pneumoniae (IMP-26 TEM SHV)",> 10 µg/mL
same,MIC,"[13]; Klebsiella pneumoniae, strain KPM1097, Klebsiella pneumoniae (NDM, KPC)",> 10 µg/mL
same,MIC,"[13]; Klebsiella pneumoniae, strain KPM1099, Klebsiella pneumoniae (NDM, KPC)",> 10 µg/mL
same,MIC,"[13]; Klebsiella pneumoniae, strain KPM1107, Klebsiella pneumoniae (NDM, KPC)",> 10 µg/mL
same,MIC,"[13]; Klebsiella pneumoniae, strain KPM1108, Klebsiella pneumoniae (NDM, KPC)",> 10 µg/mL
same,MIC,"[13]; Klebsiella pneumoniae, strain KPM1123, Klebsiella pneumoniae (KPC-2 TEM SHV)",> 10 µg/mL
same,MIC,"[13]; Klebsiella pneumoniae, strain KPM1344, Klebsiella pneumoniae (VIM-1)",> 10 µg/mL
same,MIC,"[13]; Klebsiella pneumoniae, strain KPM1346, Klebsiella pneumoniae (NDM-1 TEM SHV CTX-M-15 CMY)",> 10 µg/mL
same,MIC,"[13]; Klebsiella pneumoniae, strain KPM1347, Klebsiella pneumoniae (NDM-1 SHV CTX-M-15)",> 10 µg/mL
same,MIC,"[13]; strain EC1065, Escherichai coli (IMP-1 CMY-2)",1 to 10 µg/mL
